Reference: US20040019066A1, “Methionine salvage pathway in bacillus” (priority 2002, published 2004)
“Also recorded” adds a separate entry of the source.

Assays:
[1] = tested on: B. subtilis 168 and mtn region mutants; conditions: Bacillus subtilis; reference [5]; cited from earlier work
[2] = tested on: B. subtilis 168 and mtn region mutants; experiment: Growth on MTR as sole sulfur source (ED1 minimal medium plates); assay type: cell-based, Bacillus subtilis
Protocol: Panel A: ED1 minimal mediums plate with 1 mM IPTG containing 0.2 mM MTR as sole sulfur source WT, metI (BSIP 1143), mtnS (BSHP7010), mtnK (BFS1850), mtnU (BFS1851), mtnV (BSHP7020), mtnW (BSHP7014), mtnX (BFS1852), mtnY (BSHP7016) and mtnZ (BFS 1853) were inoculated for over-night growth at 37° C. No growth of mtnS, mtnK, mtnW and mtnY is represented by an example of absence of growth around a disc with MTR of mtnY mutant in panel B. Normal growth of […] and mtnX is represented by an example of normal growth around a disc with MTR of mtnV mutant in panel C.
Using the collection of mutants constructed during the Bacillus subtilis functional analysis, program (http://locus.jouy.inra.fr/cgi-bin/genmic/madbase/progs/madbase.oper] and http://bacillus.genome.adjp, [9]) and constructing mutants which were not available in the collection, we tested all genes in the region for their phenotype of growth on MTR as the sole sulfur source.
Bacterial strains and plasmids, and growth media: E. coli and B. subtilis strains as well as plasmids used in this work are listed in Table 3. E. coli TG1 and XL1-Blue were used for cloning experiments (TG1 for single cross-over recombination and XL1-Blue for double cross-over recombination). Despite the fact that there are no public regulations yet in this domain in China, all experiments were performed in accordance with the European regulation requirements concerning the contained use of Genetically Modified Organisms of Group-I (French agreement N^o 2735). E. coli and B. subtilis were grown in Luria-Bertani (LB) medium and in ED minimal medium: K2HPO4, 8 mM; KH2PO4, 4,4 mM; glucose, 27 mM; Na3-citrate, 0.3 mM; L-glutamine, 15 mM; L-tryptophan, 0.244 mM; ferric citrate, 33.5 μM; MgSO4, 2 mM; MgCl2, 0.61 mM; CaCl2, 49.5 μM; FeCl3, 49.9 μM; MnCl2, 5.05 μM; ZnCl2, 12.4 μM; CuCl2, 2.52 μM; CoCl2, 2.5 μM; Na2MoO4, 2.48 μM. When methionine was used as sulfur source (1 mM), MgSO4 was replaced by MgCl2 at the same magnesium concentration (2 mM). For assaying growth on plates, either the MgSO4 containing medium or the sulfur-free basal medium was used (MgSO4 was replaced by MgCl2 as described above). In the latter case, 10 [μl of the sulfur source under investigation was applicated onto paper discs (MTR, 200 mM stock solution and methionine, 100 mM stock solution) deposited at the center of the plate, after bacteria had been uniformly spread at the surface of the plate, and growth was measured around the disK. In some cases MTR was used directly in the plate as sulfur source (0.2 mM). When necessary IPTG was included at 1 mM concentration. When xylose was added to the medium (0.5%) in order to trigger the expression of genes under the control of Pxyl inducible promoter, fructose was used as carbon source instead of glucose. LB and ED plates were prepared by addition of 17 g/liter Bacto agar or Agar Noble (Difco), respectively, to the medium. When included, antibiotics were added to the following concentrations: ampicillin, 100 mg/liter; chloramphenicol, 50 mg/liter; spectinomycin, 100 mg/liter; erythromycin plus lincomycin, 1 mg/liter and 25 mg/liter. Bacteria were grown at 37° C. The optical density (OD) of bacterial cultures was measured at 600 nm. MTR was prepared from MTA (Sigma, D5011) by acid hydrolysis as described by Schlenk. 3-fluoromethythiorybose (3F-MM, 5-thio-5-5-S-trifluoromethyl-D-ribose) was synthesised accordingly to [6, 20]. When added directly to the ED1 medium plate, 3F-MTR was used at 100 mg/liter concentration and when applicated onto paper discs 100 mM stock solution was used. For anaerobic growth on plates, the Anaerocult A (Merck) within an anaerobiosis jar for CO2 production with simultanious O2 absorbtion was used. Sulfur-free ED1 minimal medium plates were supplemented to 1% glucose final concentration and with 0.5% sodium pyruvate and 20 mM sodium nitrate as electron acceptor. Plates were incubated at 37° C. for 4 days with the sulfur source under investigation.

CSC[C@@H](O)[C@@H](O)[C@@H](O)C=O [MTR, methylthioribose]
MTR as sulfur source [1]: excellent sulfur source | Growth on MTR as sole sulfur source ([2]; Wild type strain 168, + O2, four days): normal growth after four days | Growth on MTR as sole sulfur source ([2]; Wild type strain 168, anaerobic growth, nitrate as electron acceptor, four days (table row printed '+ O2')): failed to grow; also recorded: no growth after four days | Use of MTR as the methionine source ([2]; methionine auxotrophs): can be used as the methionine source | Growth on MTR as sole sulfur source ([2]; mtnK mutant, strain BFS1850): no growth; also recorded: failed to grow | Growth on MTR as sole sulfur source ([2]; mtnS mutant, strain BSHP7010): no growth; also recorded: failed to grow | Growth on MTR as sole sulfur source ([2]; mtnU mutant, strain BFS1851): failed to grow; also recorded: no growth (numerous revertants) | Growth on MTR as sole sulfur source ([2]; mtnV mutant, strain BSHP7020): normal growth; also recorded: no visible effect on growth | Growth on MTR ([2]; mtnW inactivated with a polar effect on the distal genes): lack of growth | Growth on MTR as sole sulfur source ([2]; mtnW mutant, strain BSHP7014 (downstream genes expressed)): no growth; also recorded: failed to grow | Growth on MTR as sole sulfur source ([2]; mtnX mutant, strain BFS1852, IPTG added): normal growth; also recorded: recovered its growth properties | Growth on MTR as sole sulfur source ([2]; mtnY mutant, strain BSHP7016): no growth; also recorded: failed to grow | Growth on MTR as sole sulfur source ([2]; mtnZ mutant, strain BFS1853): partial growth; also recorded: very weak (residual) growth; also recorded: very weak, residual growth; also recorded: weak residual growth
